Measurements reported in patent US11299760B2 (Amgen Inc., priority 2013, dated 2022).

Assays:
Cells producing MAb A = assay: mock perfusion assay, cell culture parameters; format: cell-based, Chinese hamster; settings: for CVCD / Cumulative Titer / End of Production Viability / qP: MAb A
Experimental: (§1) Mock perfusion assay is a small scale, plate-based assay that is designed to mimic perfusion conditions in bioreactors through daily medium exchanges. For a 10-day mock perfusion assay, passaging cultures of various production cell lines were diluted 1:5 into chemically defined base perfusion medium in a 24 deep-well plate at a final volume of 3 ml per well. Mock perfusion was initiated on day 3 when the cells were spun down at 1000 rpm for 5 minutes and 25% of each spent culture medium was exchanged with the equivalent volume of fresh perfusion media. Subsequent medium exchange percentages were 40% on days 4-8 and 50% on day 9. Exchanged supernatants were stored at 4° C. prior to analysis.
(§2) Analysis of cell culture parameters was also started on day 3; viable cell density and viability were analyzed using the ViaCount Guava assay as previously described. Glucose was measured daily starting on day 3 and was maintained at 12 g/l. Stored supernatants were analyzed for antibody titer as described previously. Samples of supernatant fluid from days 6, 8 and 10 were also analyzed for the presence and type of glycans by HILIC analysis.
(§3) The cell lines used included three production cell lines that are known to generate mAbs with low high mannose glycans (MAb A, MAb B and MAb C) and one production cell line that consistently produces product with high levels of high mannose glycans (MAb D). […] Equivalent volumes of methanol were added daily to control cultures (columns 1 and 2 of the 24-well plate). This scheme is depicted below:
(§4) Viable cell density (VCD) and viability were measured daily starting on day 3. Spent medium samples were collected on days 3-10 and were subjected to titer analysis. Viable cell densities were used to calculate cumulative viable cell densities, which were along with cumulative titer values used to calculate specific productivities (qP). Every value shown is an average of duplicates.

Cells producing MAb C = assay: mock perfusion assay, cell culture parameters; format: cell-based, Chinese hamster; settings: for CVCD / Cumulative Titer / End of Production Viability / qP: MAb C
Experimental: as §1, §2, §3, §4

Cells producing MAb D = assay: mock perfusion assay, cell culture parameters; format: cell-based, Chinese hamster; settings: for CVCD / Cumulative Titer / End of Production Viability / qP: MAb D
Experimental: as §1, §2, §3, §4

MAb A producing cells = assay: GM130 immunofluorescence microscopy of Golgi; format: cell-based, Chinese hamster; settings: day 10 mock perfusion cultures; monensin-treated vs control
Experimental: (§5) On day 10, cell pellets were washed once with cold PBS and fixed in 4% paraformaldehyde for 10 minutes on ice. Cells were then washed once in again in cold PBS and stored at 4° C. until they were immunofluorescently stained as described below
(§6) Monensin is known to cause gross changes in Golgi architecture characterized by swollen and fragmented cisternae. The structure of the Golgi of CHO production cell lines after monensin treatment was analyzed using a panel of five different commercially available antibodies against various Golgi proteins with a passaging culture of recombinant cells producing MAb A using immunofluorescence microscopy.
(§7) Next, day 10 control and monensin-treated mock perfusion cultures of MAb A producing cells and MAb C producing cells were subjected to immunofluorescence microscopy using GM130 antibody. Paraformaldehyde fixed cell pellets were permeablized with 0.1% TritonX-100 made in PBS. Pellets were washed with PBSA (0.5% BSA in PBS) and incubated with GM130 antibody (BD Biosciences, San Jose, Calif.) diluted 1:50 in PBSA. Cells were washed thrice with PBSA and incubated with Alexa 488 conjugated mouse secondary antibody (Invitrogen, Grand Island, N.Y.) diluted 1:1000 in PBSA. […] Images were captured using Zeiss 510 microscope (Carl Zeiss, Inc., Jena, Germany) with 63× water immersion lens and analyzed using LSM image browser software.

MAb C producing cells = assay: GM130 immunofluorescence microscopy of Golgi; format: cell-based, Chinese hamster; settings: day 10; increasing monensin culminating at 100 nM from days 7-10
Experimental: as §5, §6, §7

[1] = system: recombinant cell line producing MAb E; assay: ATF bioreactors, cell culture performance; format: cell-based; settings: 500 nM monensin for ~22 hours from day 8; ATF reactors Ra, Rb
Experimental: Cells in the control reactor (black circles) were grown in the absence of monensin. Viable cell density is illustrated in FIG. 1. FIG. 2 presents the results of viability analysis. […] Daily spent medium samples were also submitted for titer analysis.
The applicability of using monensin to modulate high mannose levels in a large scale, controlled production setting was evaluated using a recombinant cell line producing MAb E in alternating tangential flow (ATF) bioreactors. MAb E cells grown in growth medium for the seed train were used to inoculate the N-1 bioreactor at 6×10^5 cells/ml in growth medium. The cells from N-1 bioreactor were then used to inoculate three, 2 L production bioreactors (N) at 7.5×10^5 cells/ml in base perfusion medium (referred to as control, Ra, and Rb bioreactors).
The production bioreactors were grown for 20 days at pH 7.00, 36° C., 30% DO and 400 rpm agitation. These production tanks were run with the ATF system starting on day 3 with 0.5 vol/day perfusion rate, which was increased to 0.6 vol/day, 0.8352 vol/day and 1 vol/day on day 6, 7 and 8, respectively. Glucose levels were maintained separately at 5 g/L since the perfusion medium was prepared without glucose.
Antifoam was also added into the tank as needed, while 1M Sodium Carbonate was used to maintain pH at the desired setpoint. […]

[2] = system: production cell lines (MAb A, MAb B, MAb C, MAb D); assay: mock perfusion assay, glycan analysis, all four production cell lines; format: cell-based, Chinese hamster
Experimental: as §1, §2
The cell lines used included three production cell lines that are known to generate mAbs with low high mannose glycans (MAb A, MAb B and MAb C) and one production cell line that consistently produces product with high levels of high mannose glycans (MAb D). […]

[3] = increasing monensin (to 100 nM)

`CC[C@@]1([C@@H]2O[C@@H]([C@H]3O[C@@](O)(CO)[C@H](C)C[C@@H]3C)C[C@@H]2C)CC[C@H]([C@]2(C)CC[C@]3(C[C@H](O)[C@@H](C)[C@@H]([C@@H](C)[C@@H](OC)[C@H](C)C(=O)O)O3)O2)O1` [monensin] was tested, and the “effect on cell growth” value (Cells producing MAb A; MAb A cells, mock perfusion) was “decrease in total cell mass accumulation”, the “effect on titer and specific productivity” value (Cells producing MAb A; MAb A cells, mock perfusion) was “decreased titer but increased specific productivity” and the CVCD (Cells producing MAb A; constant monensin 25 nM) was 57 10^6 c-day/ml. For the same molecule, the “Cumulative Titer” value (Cells producing MAb A; constant monensin 25 nM) was 5.9 g/L, the “End of Production Viability” value (Cells producing MAb A; constant monensin 25 nM) was 78% and the qP (Cells producing MAb A; constant monensin 25 nM) was 103 pg/c/d. For the same molecule, the CVCD (Cells producing MAb A; increasing monensin (to 50 nM)) was 57 10^6 c-day/ml, the “Cumulative Titer” value (Cells producing MAb A; increasing monensin (to 50 nM)) was 5.8 g/L and the “End of Production Viability” value (Cells producing MAb A; increasing monensin (to 50 nM)) was 80%. The qP (Cells producing MAb A; increasing monensin (to 50 nM)) was 101 pg/c/d, the “effect on cumulative viable cell density and viability” value (Cells producing MAb C; MAb C cells, mock perfusion) was “slightly increased cumulative viable cell density and improved the viability” and the “effect on titer and specific productivity” value (Cells producing MAb C; MAb C cells, mock perfusion) was “increased titer but slightly lower specific productivity”. For the same molecule, the “titer and cell culture impacts” value (Cells producing MAb C; MAb C cells, mock perfusion with monensin) was “no drop in titer or any other negative cell culture impacts”, the CVCD (Cells producing MAb C; constant monensin 25 nM) was 215 10^6 c-day/ml and the “Cumulative Titer” value (Cells producing MAb C; constant monensin 25 nM) was 7.4 g/L. For the same molecule, the “End of Production Viability” value (Cells producing MAb C; constant monensin 25 nM) was 77%, the qP (Cells producing MAb C; constant monensin 25 nM) was 34 pg/c/d and the CVCD (Cells producing MAb C; [3]) was 208 10^6 c-day/ml. The “Cumulative Titer” value (Cells producing MAb C; [3]) was 7.1 g/L, the “End of Production Viability” value (Cells producing MAb C; [3]) was 77% and the qP (Cells producing MAb C; [3]) was 34 pg/c/d. The “effect on cell growth” value (Cells producing MAb D; MAb D cells, mock perfusion) was “similar, though not as pronounced, negative growth impact”, the “effect on titer and specific productivity” value (Cells producing MAb D; MAb D cells, mock perfusion) was “slightly decreased the titer of MAb D cells but had no effect on specific productivity” and the CVCD (Cells producing MAb D; constant monensin 25 nM) was 104 10^6 c-day/ml. The “Cumulative Titer” value (Cells producing MAb D; constant monensin 25 nM) was 4.5 g/L, the “End of Production Viability” value (Cells producing MAb D; constant monensin 25 nM) was 68% and the qP (Cells producing MAb D; constant monensin 25 nM) was 43 pg/c/d. The CVCD (Cells producing MAb D; [3]) was 89 10^6 c-day/ml, the “Cumulative Titer” value (Cells producing MAb D; [3]) was 3.6 g/L and the “End of Production Viability” value (Cells producing MAb D; [3]) was 53%. The qP (Cells producing MAb D; [3]) was 41 pg/c/d, the “Golgi morphology (GM130 staining)” value (MAb A producing cells) was “No morphological difference” and the “Golgi morphology (GM130 staining)” value (MAb C producing cells) was “punctate distribution of GM130 protein”. For the same molecule, the “impact on cell growth and viability” value [1] was “slight negative impact on cell growth and viability”, the “titers compared to the control tank” value [1] was “marginally improved titers” and the “effect on high mannose glycans” value ([2]; all four antibody products, mock perfusion) was “increased high mannose glycans on all four antibody products tested in a dose dependent manner”. The “increase of high mannose levels compared to the control samples” value ([2]; antibodies collected on day 10, depending on the monensin dose) was 1.5 to 15 fold.
